Assay results reported in ChEMBL document CHEMBL4831523, “Taichunins E-T, Isopimarane Diterpenes and a 20-nor-Isopimarane, from Aspergillus taichungensis (IBT 19404): Structures and Inhibitory Effects on RANKL-Induced Formation of Multinuclear Osteoclasts” (J Nat Prod, 2021).
Active and inactive are the calls of the source. No cut-off for these calls is given here.

Columns and labels:
RAW264.7 [1] = assay: Inhibition of RANKL-induced osteoclastogenesis in mouse RAW264.7 cells assessed as reduction in number of TRAP-positive multinuclear cells measured after 4 days by TRAP staining based assay; type: functional, cell-based; settings: for inhibition: time 4.0 day
RAW264.7 [2] = assay: Inhibition of RANKL-induced osteoclastogenesis in mouse RAW264.7 cells assessed as reduction in Nfatc1 mRNA expression at 30 uM measured after 24 hrs by qRT-PCR method; type: functional
RAW264.7 [3] = assay: Cytotoxicity against RANKL-treated mouse RAW264.7 cells assessed as effect on cell viability at 50 uM measured after 4 days by MTT assay; type: cell-based; settings: raw264.7, 96 h, time 4 day
RAW264.7 [4] = assay: Inhibition of RANKL-induced osteoclastogenesis in mouse RAW264.7 cells assessed as reduction in TRAP activity at 5 uM measured after 4 days by pNPP based assay; type: functional, cell-based; settings: time 4.0 day
RAW264.7 [5] = assay: Inhibition of RANKL-induced osteoclastogenesis in mouse RAW264.7 cells assessed as reduction in number of TRAP-positive multinuclear cells at 5 uM measured after 4 days by TRAP staining based assay; type: functional, cell-based; settings: time 4.0 day
RAW264.7 [6] = assay: Inhibition of RANKL-induced osteoclastogenesis in mouse RAW264.7 cells assessed as reduction in TRAP activity measured after 4 days by pNPP based assay; type: functional, cell-based; settings: dose 0.2-1 µM, time 4.0 day
RAW264.7 [7] = assay: Inhibition of RANKL-induced osteoclastogenesis in mouse RAW264.7 cells assessed as reduction in number of TRAP-positive multinuclear cells at 0.2 uM measured after 4 days by TRAP staining based assay; type: functional; settings: RAW264.7, 96 h, time 4 day

Question: `C=C[C@]1(C)C=C2[C@@H](O)[C@@]3(O)OC(=O)[C@@]4(CCCC(C)(C)[C@H]34)[C@@]2(O)CC1` [SPHAEROPSIDIN B] was tested. Which IC50 (RAW264.7 [1]; RAW264.7, 96 h) did it give?
Answer: The IC50 was 10.6 µM.

Question: And the inhibition at 30 µM (RAW264.7 [2])?
Answer: Its inhibition at 30 µM is 63%.

Question: What about the Activity (RAW264.7 [3]) of the same compound?
Answer: The Activity was “Non-Toxic”.

Question: How did the Activity (RAW264.7 [3]) turn out when `C=C[C@]1(C)C=C2C(=O)C[C@H]3C(C)(C)CC[C@@H](O)[C@]3(C(=O)O)[C@H]2CC1` was run?
Answer: The Activity was “Non-Toxic”.

Question: `C=C[C@@]1(C)CCc2c3c(c(O)c(OS(=O)(=O)O)c2[C@H]1O)C(C)(C)CCC3` was tested. Which Activity (RAW264.7 [3]) did it give?
Answer: Its Activity is “Non-Toxic”.

Question: With `C=C[C@]1(C)C=C2C(=O)C(=O)[C@H]3C(C)(C)CCC[C@]3(C(=O)O)[C@@]2(O)CC1` as the compound, how does the Activity (RAW264.7 [3]) read?
Answer: The Activity was “Non-Toxic”.

Question: How did the Activity (RAW264.7 [3]) turn out when `C=C[C@@]1(C)C[C@@H](O)[C@@H]2[C@@]34CCCC(C)(C)[C@@H]3[C@H](O)C(=O)[C@@]2(OC4=O)[C@H]1O` was run?
Answer: The Activity was “Non-Toxic”.

Question: Which Activity (RAW264.7 [3]) does the source give for `C=C[C@]1(C)C=C2C(=O)C[C@H]3C(C)(C)CCC[C@]3(C(=O)O)[C@@]2(O)CC1` [SPHAEROPSIDIN C] here?
Answer: The Activity was “Non-Toxic”.

Question: How did the Activity (RAW264.7 [3]) turn out when `C=C[C@]1(C)C=C2[C@H](O)C[C@H]3C(C)(C)CC[C@@H](O)[C@]3(C)[C@H]2CC1` was run?
Answer: The Activity was “Non-Toxic”.

Question: With `C=C[C@]1(C)C=C2[C@H]3OC(=O)[C@@]4(CCCC(C)(C)[C@@H]4[C@H]3O)[C@H]2CC1` as the compound, how does the inhibition (RAW264.7 [4]) read?
Answer: The inhibition was “Active”.

Question: What about the inhibition (RAW264.7 [1]) of the same compound?
Answer: Its inhibition is “Dose-Dependent Effect”.

Question: And the inhibition (RAW264.7 [5])?
Answer: The inhibition was “Active”.

Question: And the Activity (RAW264.7 [3])?
Answer: Its Activity is “Non-Toxic”.

Question: And the inhibition (RAW264.7 [6])?
Answer: The inhibition was “Dose-Dependent Effect”.

Question: `C=C[C@@]1(C)CC[C@H]2C(=C[C@H](O)[C@H]3C(C)(C)CC[C@@H](O)[C@]23C)[C@H]1O` was tested. Which Activity (RAW264.7 [3]) did it give?
Answer: The Activity was “Non-Toxic”.

Question: Which Activity (RAW264.7 [3]) does the source give for `C=C[C@@]1(C)C[C@@H](O)[C@H]2C(=C[C@H](O)[C@H]3C(C)(C)CCC[C@]23C)[C@H]1O` here?
Answer: Its Activity is “Non-Toxic”.

Question: How did the Activity (RAW264.7 [3]) turn out when `C=C[C@@]1(C)CC[C@H]2[C@H]([C@H]1O)[C@@H](O)C[C@H]1C(C)(C)CCC[C@]21C(=O)O` was run?
Answer: The Activity was “Non-Toxic”.

Question: For `C=C[C@]1(C)C=C2[C@@H](O)C[C@H]3C(C)(C)CCC[C@]3(C(=O)O)[C@@]2(O)[C@H](O)C1`, which Activity (RAW264.7 [3]) is on record?
Answer: Its Activity is “Non-Toxic”.

Question: With `C=C[C@@]1(C)CC(=O)C2=C([C@H]1O)[C@@]1(O)OC[C@@]23CCCC(C)(C)[C@@H]3[C@H]1O` as the compound, how does the Activity (RAW264.7 [3]) read?
Answer: Its Activity is “Non-Toxic”.

Question: For `C=C[C@]1(C)C=C2[C@@H](O)C[C@H]3C(C)(C)CCC[C@]3(C(=O)O)[C@H]2CC1`, which Activity (RAW264.7 [3]) is on record?
Answer: The Activity was “Non-Toxic”.

Question: Which inhibition (RAW264.7 [4]) does the source give for `C=C[C@]1(C)C=C2[C@H]([C@@H](O)C1)[C@@]1(C(=O)O)CCCC(C)(C)[C@@H]1C[C@@H]2O` here?
Answer: Its inhibition is “Active”.

Question: What about the inhibition (RAW264.7 [1]) of the same compound?
Answer: Its inhibition is “Dose-Dependent Effect”.

Question: What about the inhibition (RAW264.7 [5]) of the same compound?
Answer: Its inhibition is “Active”.

Question: And the inhibition at 0.2 µM (RAW264.7 [7])?
Answer: Its inhibition at 0.2 µM is 92%.

Question: And the Activity (RAW264.7 [3])?
Answer: The Activity was “Non-Toxic”.

Question: What about the inhibition (RAW264.7 [6]) of the same compound?
Answer: The inhibition was “Dose-Dependent Effect”.

Question: For `C=C[C@]1(C)C=C2[C@H]3OC(=O)[C@@]4(CCCC(C)(C)[C@@H]4[C@H]3O)[C@@]2(O)CC1`, which Activity (RAW264.7 [3]) is on record?
Answer: The Activity was “Non-Toxic”.

Question: With `C=C[C@@]1(C)CC[C@]2(O)[C@@]34CCCC(C)(C)C3=C(O)C(=O)[C@@]2(OC4=O)[C@H]1O` as the compound, how does the Activity (RAW264.7 [3]) read?
Answer: The Activity was “Non-Toxic”.

Question: What does the source list for `C=C[C@]1(C)C=C2[C@@H](O)C(=O)[C@H]3C(C)(C)CCC[C@]3(C(=O)O[C@@H]3O[C@H](CO)[C@@H](O)[C@H](O)[C@H]3O)[C@H]2CC1`?
Answer: inhibition (RAW264.7 [4]): Active; inhibition (RAW264.7 [1]): Dose-Dependent Effect; inhibition (RAW264.7 [5]): Active; Activity (RAW264.7 [3]): Non-Toxic; inhibition (RAW264.7 [6]): Dose-Dependent Effect

Question: With `C=C[C@]1(C)C=C2C(=O)[C@@H](O)[C@H]3C(C)(C)CCC[C@]3(C(=O)O[C@@H]3O[C@H](CO)[C@@H](O)[C@H](O)[C@H]3O)[C@H]2CC1` as the compound, how does the Activity (RAW264.7 [3]) read?
Answer: Its Activity is “Non-Toxic”.

Question: For `C=C[C@]1(C)C=C2[C@H]3OC(OC)[C@@]4([C@H](O)CCC(C)(C)[C@@H]4[C@H]3O)[C@H]2CC1` (stereo not given in full), which Activity (RAW264.7 [3]) is on record?
Answer: The Activity was “Non-Toxic”.
